Experimental data as given in US9777005B2 (Takeda Pharmaceutical Company Limited, priority 2012, dated 2017).
pEC50: −log10 of the molar value.

Target: T1, human M1 receptor (hCHRM1) (Homo sapiens, UniProt P11229)
T1 construct: expressed in transfected cells; host or cells: CHO-K1
T1 sequence (P11229 1-460): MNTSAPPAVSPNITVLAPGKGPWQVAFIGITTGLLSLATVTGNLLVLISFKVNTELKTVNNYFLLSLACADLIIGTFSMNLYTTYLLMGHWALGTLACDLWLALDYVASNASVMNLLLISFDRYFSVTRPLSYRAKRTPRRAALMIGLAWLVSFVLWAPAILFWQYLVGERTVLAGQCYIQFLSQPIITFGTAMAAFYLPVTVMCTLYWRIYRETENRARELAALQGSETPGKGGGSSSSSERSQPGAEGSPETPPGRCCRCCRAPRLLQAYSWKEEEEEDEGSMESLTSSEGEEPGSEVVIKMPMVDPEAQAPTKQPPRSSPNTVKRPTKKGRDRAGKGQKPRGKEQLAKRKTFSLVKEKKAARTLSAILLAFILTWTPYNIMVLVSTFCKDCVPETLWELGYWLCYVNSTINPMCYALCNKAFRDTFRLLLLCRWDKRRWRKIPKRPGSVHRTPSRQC
Experiment: Measurement of M1 receptor positive allosteric modulator (M1PAM) activity, calcium fluorescence (FLIPRtetra) in CHO-K1 cells in the presence of acetylcholine at EC20
Type: cell-based
Details: in the presence of acetylcholine at EC20 (final 0.6 nM), CHO-K1 cells expressing hCHRM1; for pEC50: inflection point of M1PAM activity, read-out: IP value; for activity (%) at 10 μM: test compound 10 μM
Description: Measurement of M1 Receptor Positive Allosteric Modulator (M1PAM) Activity
The activity of a test compound in the presence of acetylcholine at EC20 concentration (final concentration 0.6 nM), which affords an action corresponding to 20% of the maximum activity, was measured as PAM activity. The method is as follows. CHO-K1 cells forcibly expressing a human M1 receptor (hCHRM1) were plated on a 384-well black clear bottom plate (BD Falcon) at 5,000 cells/well, and cultured in an incubator at 37° C., 5% CO2 for 1 day. The medium in the cell plate was removed, and assay buffer A (Recording medium (DOJINDO LABORATORIES), 0.1% BSA (Wako Pure Chemical Industries, Ltd.), 2.5 μg/mL Fluo-4 AM (DOJINDO LABORATORIES), 0.08% Pluronic F127 (DOJINDO LABORATORIES), 1.25 mM probenecid (DOJINDO LABORATORIES)) containing a calcium indicator was added at 30 μL/well. The cells were left standing in the incubator at 37° C., 5% CO2 for 30 min, and further left standing at room temperature for 30 min. A test compound prepared by diluting with assay buffer B (HBSS (Invitrogen), 20 mM HEPES (Invitrogen), 0.1% BSA) containing 2.4 nM acetylcholine was added at 10 μL/well, and the fluorescence was measured by FLIPRtetra (Molecular Devices) for 1 min every 1 second. With the definition that the amount of change in the fluorescence on addition of acetylcholine (final concentration 1 μM) is 100% and that on addition of DMSO instead of a test compound is 0%, the activity (%) of the test compound and the inflection point in the concentration-dependent curve of the test compound were calculated as IP values.

Row | pEC50 | activity (%) at 10 μM [%] | Molecule
1 | 8.15 | 102 | Cn1cc(-c2ccc(CN3Cc4cccc(O[C@H]5CCCC[C@@H]5O)c4C3=O)cc2)cn1 (relative stereo) [Example 1, 7-((trans-2-hydroxycyclohexyl)oxy)-2-(4-(1-methyl-1H-pyrazol-4-yl)benzyl)isoindolin-1-one]
2 | 8.06 | 105 | Cn1cc(-c2ccc(CN3Cc4cccc(O[C@H]5CCC(F)(F)C[C@@H]5O)c4C3=O)cc2)cn1 (relative stereo) [Example 2, 7-((trans-4,4-difluoro-2-hydroxycyclohexyl)oxy)-2-(4-(1-methyl-1H-pyrazol-4-yl)benzyl)isoindolin-1-one]
3 | 8.04 | 104 | Cn1cc(-c2ccc(CN3Cc4cccc(O[C@H]5CCCCC[C@@H]5O)c4C3=O)cc2)cn1 (relative stereo) [Example 3, 7-((trans-2-hydroxycycloheptyl)oxy)-2-(4-(1-methyl-1H-pyrazol-4-yl)benzyl)isoindolin-1-one]
4 | 7.89 | 101 | Cn1cc(-c2ccc(CN3Cc4cccc(O[C@H]5CCC[C@@H]5O)c4C3=O)cc2)cn1 (relative stereo) [Example 4, 7-((trans-2-hydroxycyclopentyl)oxy)-2-(4-(1-methyl-1H-pyrazol-4-yl)benzyl)isoindolin-1-one]
5 | 7.49 | 114 | Cn1cc(-c2ccc(CN3Cc4cccc(O[C@H]5CCCC(F)(F)[C@@H]5O)c4C3=O)cc2)cn1 (relative stereo) [Example 7, 7-((trans-3,3-difluoro-2-hydroxycyclohexyl)oxy)-2-(4-(1-methyl-1H-pyrazol-4-yl)benzyl)isoindolin-1-one]
6 | 6.72 | 113 | O=C1c2c(cccc2O[C@H]2CCCC[C@@H]2O)CN1Cc1ccc(Br)cc1 (relative stereo) [Example 25, 2-(4-bromobenzyl)-7-((trans-2-hydroxycyclohexyl)oxy)isoindolin-1-one]
7 | 8.39 | 96 | O=C1c2c(cccc2O[C@H]2CCCC[C@@H]2O)CN1Cc1ccc(-c2cn[nH]c2)cc1 (relative stereo) [Example 26, 7-((trans-2-hydroxycyclohexyl)oxy)-2-(4-(1H-pyrazol-4-yl)benzyl)isoindolin-1-one]
8 | 8.19 | 97 | Cn1cc(-c2ccc(CN3Cc4cccc(O[C@H]5CCCC[C@@H]5O)c4C3=O)cn2)cn1 (relative stereo) [Example 27]
9 | 8.15 | 120 | Cn1cc(-c2ccc(CN3Cc4cccc(O[C@H]5CCCC[C@@H]5O)c4C3=O)s2)cn1 (relative stereo) [Example 28, 7-((trans-2-hydroxycyclohexyl)oxy)-2-((5-(1-methyl-1H-pyrazol-4-yl)-2-thienyl)methyl)isoindolin-1-one]
10 | 8.12 | 89 | O=C1c2c(cccc2O[C@H]2CCCC[C@@H]2O)CN1Cc1ccc(-n2cccn2)cc1 (relative stereo) [Example 29, 7-((trans-2-hydroxycyclohexyl)oxy)-2-(4-(1H-pyrazol-1-yl)benzyl)isoindolin-1-one]
11 | 6.72 | 104 | O=C1c2c(cccc2O[C@H]2CCCC[C@@H]2O)CN1Cc1ccc(-c2ccnn2C2CCCCO2)cc1 (relative stereo) [Example 30, 7-((trans-2-hydroxycyclohexyl)oxy)-2-(4-(1-(tetrahydro-2H-pyran-2-yl)-1H-pyrazol-5-yl)benzyl)isoindolin-1-one]
12 | 8.07 | 105 | O=C1c2c(cccc2O[C@H]2CCCC[C@@H]2O)CN1Cc1ccc(-c2ccn[nH]2)cc1 (relative stereo) [Example 31, 7-((trans-2-hydroxycyclohexyl)oxy)-2-(4-(1H-pyrazol-5-yl)benzyl)isoindolin-1-one]
13 | 8.00 | 110 | Cc1ccn(-c2ccc(CN3Cc4cccc(O[C@H]5CCCC[C@@H]5O)c4C3=O)cc2)n1 (relative stereo) [Example 32, 7-((trans-2-hydroxycyclohexyl)oxy)-2-(4-(3-methyl-1H-pyrazol-1-yl)benzyl)isoindolin-1-one]
14 | 7.11 | 98 | N#Cc1ccc(CN2Cc3cccc(O[C@H]4CCCC[C@@H]4O)c3C2=O)cc1 (relative stereo) [Example 33, 4-((7-((trans-2-hydroxycyclohexyl)oxy)-1-oxo-1,3-dihydro-2H-isoindol-2-yl)methyl)benzonitrile]
15 | 8.00 | 92 | NC(=O)c1ccc(CN2Cc3cccc(O[C@H]4CCCC[C@@H]4O)c3C2=O)cc1 (relative stereo) [Example 34, 4-((7-((trans-2-hydroxycyclohexyl)oxy)-1-oxo-1,3-dihydro-2H-isoindol-2-yl)methyl)benzamide]
16 | 7.85 | 134 | Cn1ccc(-c2ccc(CN3Cc4cccc(O[C@H]5CCCC[C@@H]5O)c4C3=O)cc2)n1 (relative stereo) [Example 35, 7-((trans-2-hydroxycyclohexyl)oxy)-2-(4-(1-methyl-1H-pyrazol-3-yl)benzyl)isoindolin-1-one]
17 | 7.24 | 97 | Cn1cc(-c2cccc(CN3Cc4cccc(O[C@H]5CCCC[C@@H]5O)c4C3=O)c2)cn1 (relative stereo) [Example 39, 7-((trans-2-hydroxycyclohexyl)oxy)-2-(3-(1-methyl-1H-pyrazol-4-yl)benzyl)isoindolin-1-one]
18 | 7.19 | 117 | Cc1ccn(-c2ccc(CN3Cc4cccc(O[C@H]5CCC[C@@H]5O)c4C3=O)cc2)n1 (relative stereo) [Example 40, 7-((trans-2-hydroxycyclopentyl)oxy)-2-(4-(3-methyl-1H-pyrazol-1-yl)benzyl)isoindolin-1-one]
19 | 6.68 | 99 | O=C1c2c(cccc2O[C@H]2CCCC[C@@H]2O)CN1Cc1ccc(Cl)nc1 (relative stereo) [Example 43, 2-((6-chloropyridin-3-yl)methyl)-7-((trans-2-hydroxycyclohexyl)oxy)isoindolin-1-one]
20 | 6.44 | 100 | O=C1c2c(cccc2O[C@H]2CCCC[C@@H]2O)CN1Cc1cccc(Br)c1 (relative stereo) [Example 48, 2-(3-bromobenzyl)-7-((trans-2-hydroxycyclohexyl)oxy)isoindolin-1-one]
21 | 6.80 | 106 | O=C1c2c(cccc2O[C@H]2CCC[C@@H]2O)CN1Cc1ccc(-n2cccn2)cc1 (relative stereo) [Example 54, 2-(4-(1H-pyrazol-1-yl)benzyl)-7-((trans-2-hydroxycyclopentyl)oxy)isoindolin-1-one]
22 | 8.14 | 108 | Cc1cc(-c2ccc(CN3Cc4ccnc(O[C@H]5CCC[C@@H]5O)c4C3=O)cc2)ccn1 (relative stereo) [Example 76, 4-((trans-2-hydroxycyclopentyl)oxy)-2-(4-(2-methylpyridin-4-yl)benzyl)-1,2-dihydro-3H-pyrrolo[3,4-c]pyridin-3-one]
23 | 7.41 | 103 | O=C1c2c(ccnc2O[C@H]2CCC[C@@H]2O)CN1Cc1ccc(-n2cccn2)cc1 (relative stereo) [Example 77, 4-((trans-2-hydroxycyclopentyl)oxy)-2-(4-(1H-pyrazol-1-yl)benzyl)-1,2-dihydro-3H-pyrrolo[3,4-c]pyridin-3-one]

Row | Molecule | pEC50 | activity (%) at 10 μM [%]
24 | 1,5-anhydro-2-deoxy-3-O-(3-oxo-2-(4-(1H-pyrazol-1-yl)benzyl)-2,3-dihydro-1H-isoindol-4-yl)-threo-pentitol [Example 239] | 8.21 | 109
25 | 1,5-anhydro-2-deoxy-4-O-(3-oxo-2-(4-(1H-pyrazol-1-yl)benzyl)-2,3-dihydro-1H-isoindol-4-yl)-threo-pentitol [Example 241] | 7.89 | 101
